Reference: PMC10674865, “Identification and Pharmacological Characterization of a Low-Liability Antinociceptive Bifunctional MOR/DOR Cyclic Peptide” (Molecules, 2023)
Marks after values point to notes of the source that are not given here. Positions of bridges follow the written chain, without caps; N, C: chain ends. Non-standard residues stand in square brackets, D forms with d. Residues, ends and D or L forms follow the SMILES beside them. 2Abz = Nc1ccccc1C(=O)O; Dap = NC[C@H](N)C(=O)O

Legend:
[1] = target: T1, MOR (Homo sapiens, UniProt P35372); test: SAFETYscan cAMP assay, agonist mode, cells overexpressing MOR; format: cell-based; settings: cells overexpressing receptor, read-out: MOR agonism EC50
T1 sequence (P35372 whole entry): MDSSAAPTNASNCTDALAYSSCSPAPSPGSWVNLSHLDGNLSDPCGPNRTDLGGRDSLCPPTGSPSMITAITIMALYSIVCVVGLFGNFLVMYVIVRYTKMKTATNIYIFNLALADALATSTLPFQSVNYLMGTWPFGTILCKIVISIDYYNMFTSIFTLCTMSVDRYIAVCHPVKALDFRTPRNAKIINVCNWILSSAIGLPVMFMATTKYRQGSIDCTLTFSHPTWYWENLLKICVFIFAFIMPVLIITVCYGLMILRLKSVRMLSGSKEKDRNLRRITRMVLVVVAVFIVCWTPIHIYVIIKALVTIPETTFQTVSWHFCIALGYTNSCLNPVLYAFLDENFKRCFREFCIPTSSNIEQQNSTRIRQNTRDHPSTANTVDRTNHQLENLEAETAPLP
Description: (§1) The potential interaction of CycloAnt with a panel of 47 protein targets, including GPCRs, kinases, nuclear hormone receptors, ion channels, and enzymes, was assessed by assays included in the SAFETYscan service from Eurofins DiscoverX. CycloAnt was tested in both agonist and antagonist modes for each representative GPCRs (see Supplemental Material S9–S11).
(§2) CycloAnt interactions with a broad set of molecular targets were determined with the Safety47 Panel Dose Response, using the SAFETYscan provided by Eurofins DiscoverX. This panel utilizes 78 assays at 47 protein targets, including GPCRs, kinases, nuclear hormone receptors, ion channels, and enzymes. […] CycloAnt only interacted with MOR and DOR in the panel, showing agonist activity at both receptors using the cAMP assay. […] This discrepancy on the function at DOR may be accounted for receptor reserve, as a very weak partial agonist/antagonist can appear as a full agonist when receptor reserve is present. […] Regardless, consistent with the SAFETYscan results, CycloAnt was not found to produce any significant biological activity at any other targets in this study than DOR and MOR.

[2] = target: DOR (Homo sapiens, UniProt P41143); test: SAFETYscan cAMP assay, agonist mode, cells overexpressing DOR; format: cell-based; settings: cells overexpressing receptor, read-out: DOR agonism EC50
DOR, sequence (P41143 whole entry): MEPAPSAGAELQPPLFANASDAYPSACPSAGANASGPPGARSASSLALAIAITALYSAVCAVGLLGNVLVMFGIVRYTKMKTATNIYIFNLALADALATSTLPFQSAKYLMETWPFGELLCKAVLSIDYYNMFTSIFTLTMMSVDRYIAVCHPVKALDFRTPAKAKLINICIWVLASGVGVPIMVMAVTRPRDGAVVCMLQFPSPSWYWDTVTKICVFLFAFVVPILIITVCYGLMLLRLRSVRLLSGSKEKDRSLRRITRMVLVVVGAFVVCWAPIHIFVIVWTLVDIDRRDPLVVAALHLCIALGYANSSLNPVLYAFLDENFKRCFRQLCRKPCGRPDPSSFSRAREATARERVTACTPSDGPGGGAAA
Description: as §1, §2

[3] = tested on: panel of 47 protein targets, including GPCRs, kinases, nuclear hormone receptors, ion channels, and enzymes; test: Eurofins DiscoverX SAFETYscan Safety47 panel, agonist and antagonist modes; settings: 78 assays at 47 targets, other than MOR and DOR
Description: as §1, §2

[4] = tested on: C57BL/6J mice; test: Respiration rate in CLAMS apparatus; format: in vivo, mouse; settings: CycloAnt 3.0 or 10.6 mg/kg i.p.; morphine 10 or 30 mg/kg i.p.; 120 min period
Description: (§3) Male C57Bl/6J mice were tested for respiratory effects using automated, computer-controlled Comprehensive Lab Animal Monitoring System (CLAMS) apparatus. Mice (n = 8) were habituated in closed apparatus cages (23.5 × 11.5 × 13 cm^3) for 30 min before being administrated with the hit i.p. at the experimented high dose of 3.0 mg/kg, and an even higher dose at 15 times of the ED50 value, 10.6 mg/kg, i.p. Mice were then returned to chambers, and their respiration rate (breaths/min) was measured for […] in 30 s intervals using a pressure transducer built into the enclosed, sealed CLAMS cage. The resultant change in pressure during mouse breathing was recorded to reveal the respiration rate (breaths/min).
(§4) Infrared beams located in the floor measured locomotion as the number of beam breaks. Respiration and locomotive data were averaged over 20 min periods for 120 min post-injection of the test compound. Data are presented as % vehicle response ± SEM, ambulation or breaths per minute.

[5] = tested on: C57BL/6J mice; test: Ambulation (hyperlocomotion) in CLAMS apparatus; format: in vivo, mouse; settings: for Effect on ambulation (hyperlocomotion): CycloAnt 3 or 10.6 mg/kg i.p., morphine 10 or 30 mg/kg i.p., 120 min
Description: as §3, §4

[6] = tested on: mice; test: Opioid-induced hyperalgesia, 48 °C warm water tail-withdrawal assay; format: in vivo, mouse; settings: for Day 5 tail withdrawal latency, 48 °C warm water stimulus: after twice daily dosing for 4 days (morphine 10 mg/kg, CycloAnt 3 mg/kg i.p.), before day 5 dose, day 1 baselines 10 ± 1.14 s (morphine group), 9.1 ± 0.68 s (CycloAnt group), mean ± SEM, SEM; for Opioid-induced hyperalgesia after chronic administration: twice daily for 4 days, morphine 10 mg/kg, CycloAnt 3 mg/kg i.p., 48 °C
Description: The 48 °C warm water tail-withdrawal assay was performed as previously described, with the latency to withdraw the tail taken as the end point. The water temperature of 48 °C was selected for this work to ensure a moderate tail-withdrawal response, with a measurable decrease in withdrawal time possible, but also a significant temperature for hyperalgesic testing. […] After determining control latencies on day 1, mice received chronic morphine (10 mg/kg, i.p.) or CycloAnt (3 mg/kg, i.p.) treatment twice a day for 4 days, as described below. […] Mice were then tested prior to treatment on day 5 for evidence of induced hyperalgesia.

[7] = tested on: mice; test: Antinociceptive tolerance after chronic dosing, 55 °C WWTW; format: in vivo, mouse; settings: twice daily for 4 days, morphine 10 mg/kg (tested 30 min), CycloAnt 3 mg/kg i.p. (tested 20 min)
Description: (§5) Mice were randomly assigned to one of three groups and given saline (i.p.; n = 10), morphine (10 mg/kg, i.p.; n = 10) or CycloAnt (3 mg/kg, i.p.; n = 9) twice daily for 4 days, and once more on the morning of the fifth day. Mice were then tested in the 55 °C WWTW assay to assess for the loss of therapeutic efficacy (antinociceptive tolerance; see above). Two hours after this test, naloxone (10 mg/kg, i.p.) was administrated to all mice to precipitate opioid withdrawal. Mouse activity was digitally recorded and evaluated later for an established record of withdrawal behaviors for 15 min [39]. Immediately upon injection of naloxone, all mice were scored for number of jumps, forepaw tremor, wet dog shakes, straightening, rearing, forepaw licking, teeth chattering, and the presence (as +/−) and number of soft stools.

[8] = tested on: mice; test: Naloxone-precipitated opioid withdrawal (physical dependence); format: in vivo, mouse; settings: for Forepaw Tremor: CycloAnt 3 mg/kg (n = 9) or morphine 10 mg/kg (n = 10) i.p. twice daily 4 days + day 5, naloxone 10 mg/kg i.p. 120 min later, scored 15 min, average; for Forepaw Licking Frequency / Jumping Frequency / Number of soft stools / Presence of diarrhea / Rearing Frequency / Straightening / Teeth Chattering Frequency / Wet Dog Shakes: as E25
Description: as §5

[9] = tested on: C57BL/6J male mice; test: 55 °C warm water tail-withdrawal (WWTW) assay, antinociception; format: in vivo, mouse
Description: The 55 °C warm water tail-withdrawal assay was performed, as previously described, [52] to screen the library. Mixed-based samples were dissolved at a concentration of 5 mg/mL in saline containing 10% DMSO. Each sample was given to mice (n = 8) intraperitoneally (i.p.) at a dose of 5 mg/kg. At 0.5, 1, 2, 3.5, 5, 8 h post-administration of the samples, the tail-withdrawal latencies were measured for each sample. The average response time to tail-withdrawal at the six time points were then combined. The combined response time to withdrawal tail was used to determine the antinociceptive effect of each sample. A cutoff of 15 s was used to avoid tissue damage; those mice failing to withdraw their tails within this time were assigned a maximal antinociceptive score of 100%.
To determine antinociceptive activity of individual compounds, the tail-withdrawal latency was determined repeatedly every 10 min, following administration of the compounds for 1 h or until latencies returned to baseline values. At each time point, antinociception was calculated according to the following formula: % antinociception = 100 × (test latency − control latency)/(15 − control latency). Tail-withdrawal data points are the means of 8–16 mice, unless otherwise indicated, with SEM shown by error bars.
Percent antinociception was used to determine within-group effects and to allow comparison to baseline latency in tail-withdrawal experiments. The statistical significance of differences between ED50 values was determined by evaluation of the ED50 value shift via nonlinear regression modeling with Prism 10.0 software. Significant differences in behavioral data were analyzed by ANOVA (one-way or two-way with repeated measures (RM), as appropriate). Significant results were further analyzed with Sidak’s, Tukey’s, or Dunnett’s multiple comparison post hoc tests, as appropriate. All data are presented as mean ± SEM, with significance set at p < 0.05.

[10] = target: T1, MOR; settings: receptor-binding assay; cited from earlier work
Source text: However, that cyclic peptide has a sequence of Tyr-[D-Lys-Dap(Ant)-Tyr-Gly], differing from the sequence Tyr-[D-Lys-Dap(Ant)-Thr-Gly] identified in this study. The di ...

Compound | Effect on breathing rate compared to vehicle [4] | Effect on ambulation (hyperlocomotion) [5] | Day 5 tail withdrawal latency, 48 °C warm water stimulus [6] [s] | Opioid-induced hyperalgesia after chronic administration [6] | Antinociceptive tolerance on day 5 [7] | Forepaw Tremor [8] | Forepaw Licking Frequency [8] | Jumping Frequency [8] | Number of soft stools [8] | Presence of diarrhea [8] | Rearing Frequency [8] | Straightening [8] | Teeth Chattering Frequency [8] | Wet Dog Shakes [8] | Time of peak antinociception after administration ([9]; i.p., 55 °C WWTW) [min] | further results
C[C@@H](O)[C@@H]1NC(=O)[C@H](CNC(=O)c2ccccc2N)NC(=O)[C@H](NC(=O)[C@@H](N)Cc2ccc(O)cc2)CCCCNC(=O)CNC1=O [CycloAnt, Tyr-[D-Lys-Dap(Ant)-Thr-Gly]] (H-Y[dK][Dap](2Abz)TG; lactam 2-C) | did not significantly impair breathing | induced significant hyperlocomotor activity | 9.02 ± 0.83 | did not induce significant OIH | significant reductions in the tail-withdrawal latency | 23.7 † | 11.2 † | 1.89 † | 6.67 * | yes | 17.8 * | 1.22 | 0 † | 2.22 | – | EC50 [1]: 14 nM; EC50 [2]: 3.36 nM; Agonist or antagonist activity at other panel targets [3]: did not produce agonist or antagonist activity at any other target tested in this panel; Ambulation compared with morphine ([5]; after 20 min to end of testing period, p < 0.05 Tukey): significantly less than those induced by morphine
CN1CC[C@]23c4c5ccc(O)c4O[C@H]2[C@@H](O)C=C[C@H]3[C@H]1C5 [morphine, reference compound] | produced significant dose and time-dependent respiratory depression | significantly increased ambulation | 4.35 ± 0.47 | induced significant hyperalgesia | significant reductions in the tail-withdrawal latency | 66 * | 1.7 * | 41.6 * | 5.4 * | yes | 22.2 * | 1.1 | 9.5 * | 1.3 | 30 | ED50 ([9]; Mus musculus, ip, 0.5 h, i.p., male C57BL/6J mice, 55 °C WWTW, at peak effect (morphine 30 min), read-out: Antinociceptive ED50 (and 95% confidence interval)): 4.12 mg/kg
Leu-[D-Lys-Dap(Ant)-Thr-Gly] (lariat or depsi) [CycloAnt-Leu, side-to-tail cyclic pentapeptide analog] | – | – | – | – | – | – | – | – | – | – | – | – | – | – | ≤ 20 | Duration of significant antinociception compared to vehicle ([9]; CycloAnt 3 mg/kg i.p., CycloAnt-Leu 100 mg/kg i.p., p < 0.05 Dunnett): 50 min; Fold less potent than morphine (ED50) ([9]; i.p., 55 °C WWTW): 9.3 fold; Antinociceptive ED50 (and 95% confidence interval) ([9]; i.p., male C57BL/6J mice, 55 °C WWTW, at peak effect (morphine 30 min)): 38.3 (18.7–127.1) mg/kg
Tyr-[D-Lys-Dap(Ant)-Tyr-Gly] | – | – | – | – | – | – | – | – | – | – | – | – | – | – | – | Binding affinity for the MOR [10]: 14 nM
